Results on 7 compounds are retold here after PubChem BioAssay AID328 (DTP/NCI, 2004).

The assay has as its system BDF1 mice, P388 leukemia ip, median survival T/C. Kind of assay: NCI In Vivo Anticancer Drug Screen. Data for tumor model P388 Leukemia (intraperitoneal) in B6D2F1 (BDF1) mice. The settings on record: endpoint: median survival time, higher = longer survival. In short, it runs like this: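 T/C = treated-group survival ÷ vehicle-control survival; tumour transplanted into mice before dosing.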

The mark [1] stands for this setting: dose: 25.0 mg/kg/injection, schedule: Q04DX003 (ip), vehicle: saline with Tween-80.

SMILES strings stand for the structures. “And” between values parts separate entries of the source, which are not always exact repeats. Equal entries are not always repeated. Toxic doses and inconclusive results are not listed.

For the compound `O=C1CN(CN2CCCCC2)C(=O)CN1CN1CCCCC1`, the T/C (dose: 12.5 mg/kg/injection, schedule: Q01DX009 (ip), vehicle: Klucel (hydroxypropylcellulose) (HPC)) was 115 % of control; the T/C (dose: 25.0 mg/kg/injection, schedule: Q01DX009 (ip), vehicle: Klucel (hydroxypropylcellulose) (HPC)) is 117 % of control; the T/C (dose: 50.0 mg/kg/injection, schedule: Q01DX009 (ip), vehicle: Klucel (hydroxypropylcellulose) (HPC)) is 92 % of control and 100 % of control; the T/C (dose: 100.0 mg/kg/injection, schedule: Q04DX003 (ip), vehicle: Klucel (hydroxypropylcellulose) (HPC)) was 120 % of control; the T/C (dose: 200.0 mg/kg/injection, schedule: Q04DX003 (ip), vehicle: Klucel (hydroxypropylcellulose) (HPC)) was 108 % of control.

As for `CCOC(=O)c1cnc(SC)nc1NCc1ccccc1Cl`, the T/C runs as follows: (dose: 100.0 mg/kg/injection, schedule: Q01DX009 (ip), vehicle: Klucel (hydroxypropylcellulose) (HPC)) 100 % of control; (dose: 200.0 mg/kg/injection, schedule: Q01DX009 (ip), vehicle: Klucel (hydroxypropylcellulose) (HPC)) 100 % of control; (dose: 400.0 mg/kg/injection, schedule: Q01DX009 (ip), vehicle: Klucel (hydroxypropylcellulose) (HPC)) 100 % of control.

Consider `O=C(NO)c1ccncc1`, for which the T/C is, setting by setting: (dose: 100.0 mg/kg/injection, schedule: Q01DX009 (ip), vehicle: saline) 120 % of control; (dose: 100.0 mg/kg/injection, schedule: Q01DX010 (ip), vehicle: water) 90 % of control; (dose: 132.0 mg/kg/injection, schedule: Q01DX009 (ip), vehicle: saline) 118 % of control; (dose: 200.0 mg/kg/injection, schedule: Q01DX006 (ip), vehicle: water) 90 % of control; (dose: 200.0 mg/kg/injection, schedule: Q01DX009 (ip), vehicle: saline) 118 % of control and 120 % of control; (dose: 200.0 mg/kg/injection, schedule: Q01DX010 (ip), vehicle: water) 118 % of control. The T/C is 100 % of control (dose: 200.0 mg/kg/injection, schedule: Q#A X020 (ip), vehicle: water); 113 % of control (dose: 222.0 mg/kg/injection, schedule: Q01DX010 (ip), vehicle: water); 113 % of control (dose: 222.0 mg/kg/injection, schedule: Q02DX005 (ip), vehicle: water); 118 % of control (dose: 300.0 mg/kg/injection, schedule: Q01DX009 (ip), vehicle: saline); 118 % of control (dose: 300.0 mg/kg/injection, schedule: Q#A X020 (ip), vehicle: water); 109 % of control (dose: 335.0 mg/kg/injection, schedule: Q02DX005 (ip), vehicle: water). Besides, the T/C is, setting by setting: (dose: 400.0 mg/kg/injection, schedule: Q01DX006 (ip), vehicle: water) 90 % of control; (dose: 400.0 mg/kg/injection, schedule: Q01DX010 (ip), vehicle: water) 150 % of control; (dose: 500.0 mg/kg/injection, schedule: Q01DX001 (ip), vehicle: water) 109 % of control; (dose: 600.0 mg/kg/injection, schedule: Q01DX006 (ip), vehicle: water) 100 % of control; (dose: 600.0 mg/kg/injection, schedule: Q01DX010 (ip), vehicle: water) 154 % of control; (dose: 750.0 mg/kg/injection, schedule: Q01DX010 (ip), vehicle: water) 154 % of control. Besides, the T/C runs as follows: (dose: 750.0 mg/kg/injection, schedule: Q02DX005 (ip), vehicle: water) 163 % of control; (dose: 800.0 mg/kg/injection, schedule: Q01DX006 (ip), vehicle: water) 90 % of control; (dose: 1000.0 mg/kg/injection, schedule: Q01DX001 (ip), vehicle: water) 113 % of control; (dose: 1500.0 mg/kg/injection, schedule: Q01DX001 (ip), vehicle: water) 100 % of control.

As for `CC(C)C(=O)c1ccco1`, the T/C is 95 % of control (dose: 6.25 mg/kg/injection, schedule: Q04DX003 (ip), vehicle: saline with Tween-80); 100 % of control (dose: 12.5 mg/kg/injection, schedule: Q04DX003 (ip), vehicle: saline with Tween-80); 90 % of control under setting [1].

Turning to `Cc1nc(N)nc(N)c1-c1ccc(Cl)c(Cl)c1`, the T/C was 100 % of control (dose: 0.85 mg/kg/injection, schedule: Q01DX009 (ip), vehicle: saline with Tween-80); 103 % of control (dose: 1.0 mg/kg/injection, schedule: Q02DX005 (ip), vehicle: Klucel (hydroxypropylcellulose) (HPC)); 107 % of control (dose: 1.0 mg/kg/injection, schedule: Q02DX009 (ip), vehicle: Klucel (hydroxypropylcellulose) (HPC)); 111 % of control (dose: 2.0 mg/kg/injection, schedule: Q02DX005 (ip), vehicle: Klucel (hydroxypropylcellulose) (HPC)); 117 % of control (dose: 2.0 mg/kg/injection, schedule: Q02DX009 (ip), vehicle: Klucel (hydroxypropylcellulose) (HPC)); 122 % of control (dose: 3.0 mg/kg/injection, schedule: Q01DX009 (ip), vehicle: saline with Tween-80). The T/C reads like this: (dose: 4.0 mg/kg/injection, schedule: Q02DX005 (ip), vehicle: Klucel (hydroxypropylcellulose) (HPC)) 101 % of control; (dose: 4.0 mg/kg/injection, schedule: Q02DX009 (ip), vehicle: Klucel (hydroxypropylcellulose) (HPC)) 121 % of control; (dose: 4.5 mg/kg/injection, schedule: Q01DX009 (ip), vehicle: saline with Tween-80) 118 % of control; (dose: 6.25 mg/kg/injection, schedule: Q01DX009 (ip), vehicle: saline with Tween-80) 86 % of control; (dose: 8.0 mg/kg/injection, schedule: Q02DX005 (ip), vehicle: Klucel (hydroxypropylcellulose) (HPC)) 97 % of control; (dose: 8.0 mg/kg/injection, schedule: Q02DX009 (ip), vehicle: Klucel (hydroxypropylcellulose) (HPC)) 154 % of control. For the same compound, the T/C by setting is: (dose: 16.0 mg/kg/injection, schedule: Q02DX009 (ip), vehicle: Klucel (hydroxypropylcellulose) (HPC)) 117 % of control; under setting [1], 172 % of control; (dose: 37.5 mg/kg/injection, schedule: Q04DX003 (ip), vehicle: saline with Tween-80) 118 % of control.

As to `CN1CCCC1c1cccnc1` (centres undefined), the T/C by setting is: (dose: 3.13 mg/kg/injection, schedule: Q01DX009 (ip), vehicle: saline) 109 % of control; (dose: 6.25 mg/kg/injection, schedule: Q01DX009 (ip), vehicle: saline) 109 % of control.

As to `CN(C)/C=N/n1cnc2c(ncn2C2OC(CO)C(O)C2O)c1=O` (centres undefined), the T/C (dose: 50.0 mg/kg/injection, schedule: Q04DX003 (ip), vehicle: saline) was 108 % of control; the T/C (dose: 100.0 mg/kg/injection, schedule: Q04DX003 (ip), vehicle: saline) is 108 % of control; the T/C (dose: 200.0 mg/kg/injection, schedule: Q04DX003 (ip), vehicle: saline) was 111 % of control; the T/C (dose: 400.0 mg/kg/injection, schedule: Q04DX003 (ip), vehicle: saline) was 101 % of control.
